Measured values: patent US20180273573A1, “INHIBITORS OF MENAQUINONE BIOSYNTHESIS” (Memorial Sloan-Kettering Cancer Center, priority 2015, published 2018)
Converted amounts (≈) assume the structure as drawn. Where two headings read alike, the source gives them in different places.

Columns and labels:
E. coli = experiment: MIC, Alamar blue assay; assay type: cell-based, E. coli (K-12); settings: Escherichia coli; Table E2; ~90% cell death
wild-type E. coli MenE = wild-type E. coli MenE (Escherichia coli, UniProt P37353); experiment: Direct fluorescent binding assay (intrinsic tryptophan fluorescence)
Method: Difluoroindandiol 109 was titrated into a solution of wild-type E. coli MenE and the change in fluorescence was measured using a Quanta Master fluorimeter at excitation and emission wavelengths of 280 and 332 nm, respectively. Data was analyzed using the Morrison equation.
Instead, to determine the Kd for 109, we used a direct binding assay in which the change in the intrinsic tryptophan fluorescence of ecMenE was monitored (see FIG. 14 for binding isotherm and data). […] The solution was stirred continuously, and fluorescence measurements were taken with a Quanta Master fluorimeter using excitation and emission wavelengths of 280 and 332 nm, respectively. Slit widths were optimized to 4 and 2 nm for excitation and emission, respectively. Data were corrected for the inner filter effect and then fit to the following equation using MATLAB: […]

[1] = tested on: MRSA, S. aureus (ATCC BAA-1762); experiment: MIC, Alamar blue assay; assay type: cell-based, methicillin-resistant S. aureus; settings: Staphylococcus aureus
M. tuberculosis (H37Rv) = experiment: MIC, Alamar blue assay; assay type: cell-based; settings: Mycobacterium tuberculosis
B. subtilis (ATCC 6051) = experiment: MIC, Alamar blue assay; assay type: cell-based; settings: Bacillus subtilis, ATCC6051
[2] = tested on: menaquinone levels in S. aureus ATCC BAA-1762 (MRSA); experiment: Menaquinone levels by LC-MS/MS after lipid extraction; assay type: cell-based; settings: for decrease in menaquinone-8: MRSA, FIG. 9, two independent experiments
Text: The 1959 Blight/Dyer lipid extraction protocol was followed. Menaquinone levels were quantified by LC-MS/MS using standard curves generated with MK4 and MK9. A distribution of MKs are present in untreated MRSA with MK8 most abundant.
Standard error shown for two independent experiments. *p≤0.05, **p≤0.01.
To provide direct insight into the mode of action of the MenE inhibitors, we analyzed the effect of OSB-AMS on menaquinone-levels in S. aureus by tandem MS (FIG. 2), as follows. Cultures of S. aureus ATCC BAA-1762 (5 mL in Synthetic Broth medium with 10% glucose) were incubated overnight in a 37° C. shaker in the presence or absence of OSB-AMS (15.6 μg/mL final concentration). The Blight and Dyer (1959) lipid extraction protocol was used to isolate the menaquinone-containing fraction from the cells.^(5) Briefly, 0.75 mL of 1:2 (v/v) CHCl3:MeOH was added to 0.2 mL of culture. The mixture was vortexed thoroughly, and 0.25 mL of CHCl3 was added followed by further vortexing after which 0.25 mL of H2O was added. The mixture was then vortexed and centrifuged at 1000 rpm for 5 minutes at room temperature. The bottom phase was recovered, transferred to a glass vial and 200 μL was analyzed by APCI LC-MS/MS in positive ion mode using a Thermo TSQ Quantum Access (Thermo-Fisher) Triple Quadrupole Mass Spectrometer. Menaquinone levels were quantified using standard established for MK4 and MK9. Samples were introduced into the mass spectrometer by flow injection at 100 μL/min with 2:1 MeOH/CHCL3 as the solvent. Multiple Reaction Monitoring (MRM) was performed at 30 eV. MK4, MK5 and MK6 were quantified using the standard curve for MK4 whereas MK7, MK8, and MK9 were quantified using MK9.

wild-type ecMenE = wild-type ecMenE (Escherichia coli, UniProt P37353)
Method: The direct binding of inhibitors to MenE was quantified using isothermal titration calorimetry (ITC). Measurements were made with a MicroCal VP-ITC instrument at 25° C. Inhibitor stock solutions (1 mM in NaHPO4 buffer pH 7.4 containing 150 mM NaCl and 1 mM MgCl2) were titrated in 4 μL increments into a 50 μM solution of MenE in pH 7.4 20 mM sodium phosphate buffer containing 150 mM sodium chloride and 1 mM magnesium chloride. The data were fit to a single binding site model with the Origin software package.

E. coli MenE (ecMenE) = E. coli MenE (ecMenE) (Escherichia coli, UniProt P37353); experiment: MenE-MenB coupled assay (enzyme inhibition, catalytic parameters); settings: read-out: E. coli MenE IC50; Table E6
Method: Measurements were performed in triplicate for each compound.
Analysis of the catalytic efficiency (kcat/KM) of the mutant enzymes compared to wild type MenE was performed using the MenE-MenB coupled assay described above.

[3] = tested on: B. subtilis, MRSA, M. tuberculosis and E. coli; experiment: Antibacterial activity and MK4 growth rescue, statements over all bacteria tested; assay type: cell-based; settings: for increase in MIC values when complemented with exogenous menaquinone-4: B. subtilis, MRSA, M. tuberculosis
[4] = Table E2, ~90% cell death, read-out: MRSA MIC
[5] = Table E2, ~90% cell death, read-out: M. tuberculosis MIC
[6] = Table E2, ~90% cell death, read-out: B. subtilis MIC
[7] = Table E5, with addition of exogenous menaquinone-4 (10 μg/mL), read-out: MRSA MIC (in parentheses)
[8] = Table E5, without menaquinone-4, read-out: MRSA MIC
[9] = Table E5, with addition of exogenous menaquinone-4 (10 μg/mL), read-out: M. tuberculosis MIC (in parentheses)
[10] = Table E5, without menaquinone-4, read-out: M. tuberculosis MIC
[11] = Table E5, with addition of exogenous menaquinone-4 (10 μg/mL), read-out: B. subtilis MIC (in parentheses)
[12] = Table E5, without menaquinone-4, read-out: B. subtilis MIC

wild-type ecMenE, sequence (P37353 whole entry): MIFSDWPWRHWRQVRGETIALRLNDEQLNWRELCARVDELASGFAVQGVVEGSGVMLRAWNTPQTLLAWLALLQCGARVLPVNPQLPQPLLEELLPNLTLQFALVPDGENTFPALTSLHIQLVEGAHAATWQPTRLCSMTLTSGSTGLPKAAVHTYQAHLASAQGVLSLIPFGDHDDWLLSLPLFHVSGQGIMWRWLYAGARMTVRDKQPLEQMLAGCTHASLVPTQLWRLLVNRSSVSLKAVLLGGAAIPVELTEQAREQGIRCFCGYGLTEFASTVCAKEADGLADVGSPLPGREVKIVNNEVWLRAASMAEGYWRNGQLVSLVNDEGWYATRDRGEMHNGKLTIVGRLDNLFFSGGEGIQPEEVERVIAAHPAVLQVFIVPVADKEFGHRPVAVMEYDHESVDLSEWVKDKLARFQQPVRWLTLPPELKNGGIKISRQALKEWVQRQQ
E. coli MenE (ecMenE), sequence (P37353 whole entry): as above
wild-type E. coli MenE, sequence (P37353 whole entry): as above

Row | SMILES | MIC (E. coli) [µg/mL] | pKa (physchem) | MIC [1, 4] [µg/mL] | MIC (M. tuberculosis (H37Rv); [5]) [µg/mL] | MIC (B. subtilis (ATCC 6051); [6]) [µg/mL] | decrease in menaquinone-8 [2] | increase in MIC values when complemented with exogenous menaquinone-4 [3] | MIC [1, 7] [µg/mL] | MIC [1, 8] [µg/mL] | MIC (M. tuberculosis (H37Rv); [9]) [µg/mL] | MIC (M. tuberculosis (H37Rv); [10]) [µg/mL] | MIC (B. subtilis (ATCC 6051); [11]) [µg/mL] | MIC (B. subtilis (ATCC 6051); [12]) [µg/mL] | further results
1 | Nc1ncnc2c1ncn2[C@@H]1O[C@H](COS(=O)(=O)NC(=O)CCC2(O)c3ccccc3C(O)C2(F)F)[C@@H](O)[C@H]1O (mixture of isomers) [Compound 109] | > 500 | 11.5 | 15.6 (≈ 26.6 µM) | 15.6 (≈ 26.6 µM) | 31.2 (≈ 53.3 µM) |  |  |  |  |  |  |  |  | Kd (wild-type E. coli MenE): 120 ± 23 nM
2 | Nc1ncnc2c1ncn2[C@@H]1O[C@H](COS(=O)(=O)NC(=O)CCC(=O)c2ccccc2C(=O)O)[C@@H](O)[C@H]1O [OSB-AMS, o-succinylbenzoate-adenenosinemonosulfamate, reference compound] | > 500 | 4 | 31.2 (≈ 56.8 µM) | 125 (≈ 227 µM) | 62.5 (≈ 114 µM) | 2.5 fold |  |  |  |  |  |  |  | decrease in the levels of the menaquinones ([2]; OSB-AMS 15.6 μg/mL, overnight, 37° C.): 3-5 fold; Kd (wild-type ecMenE): 44 ± 11 nM; ΔG (wild-type ecMenE; ITC, 25° C., pH 7.4): -10.0 kcal/mol; ΔH (wild-type ecMenE; ITC, 25° C., pH 7.4): -2.0 ± 0.1 kcal/mol
3 | Nc1ncnc2c1ncn2[C@@H]1O[C@H](COS(=O)(=O)NC(=O)CC[C@@]2(O)c3ccccc3[C@H](O)C2(F)F)[C@@H](O)[C@H]1O [(1R,3S)-2, 5′-O—(N-[3″-((1R,3S)-2′″,2′″-difluoro-1′″,3′″-dihydroxy-1′″-indanyl)propanoyl]sulfamoyl)adenosine] |  |  |  |  |  |  | 2- to 4 fold | 31.2 (≈ 53.2 µM) | 15.6 (≈ 26.6 µM) | 62.5 (≈ 107 µM) | 15.6 (≈ 26.6 µM) | 31.2 (≈ 53.2 µM) | 15.6 (≈ 26.6 µM) | IC50 (E. coli MenE (ecMenE)): 5 µM
4 | Nc1ncnc2c1ncn2[C@@H]1O[C@H](COS(=O)(=O)NC(=O)CCC(=O)c2ccccc2-c2c(O)c(=O)c2=O)[C@@H](O)[C@H]1O (stereo in doubt) [Compound 106] | > 500 | 1.3 | > 500 | > 500 | 250 (≈ 415 µM) |  |  |  |  |  |  |  |  | cellular activity against any bacteria tested [3]: did not show cellular activity
5 | Nc1ncnc2c1ncn2[C@@H]1O[C@H](COS(=O)(=O)NC(=O)CC[C@]2(O)c3ccccc3[C@@H](O)C2(F)F)[C@@H](O)[C@H]1O [(1S,3R)-2, 5′-O—(N-[3″-((1S,3R)-2′″,2′″-difluoro-1′″,3′″-dihydroxy-1′″-indanyl)propanoyl]-sulfamoyl)adenosine] |  |  |  |  |  |  |  | 31.2 (≈ 53.2 µM) | 31.2 (≈ 53.2 µM) | 62.5 (≈ 107 µM) | 31.2 (≈ 53.2 µM) | 31.2 (≈ 53.2 µM) | 15.6 (≈ 26.6 µM) | rescue by exogenous menaquinone-4 ([3]; cultures complemented with exogenous menaquinone-4): Some rescue
6 | Nc1ncnc2c1ncn2[C@@H]1O[C@H](COS(=O)(=O)NC(=O)CCC2(O)c3ccccc3C(O)C2(F)F)[C@@H](O)[C@H]1O (mixture of isomers) [Compound 2] |  |  |  |  |  | 31% | four-fold increase | 62.5 | 15.6 | 62.5 | 15.6 | 62.5 | 15.6 | 
